The source of these data is patent US20140369943A1, “COMPOSITIONS COMPRISING ISOSORBIDE MONOESTERS AND HALOGENATED ANTIMICROBIAL ACTIVE COMPOUNDS” (CLARIANT INTERNATIONAL LTD., priority 2011, published 2014).

“Also recorded” adds a separate entry of the source. Like-named read-outs stand apart in the source and are kept apart here.

Assay [1] has as its system Aspergillus brasiliensis. The experiment in a line: MIC determination in agar (antimicrobial efficacy). To be noted: MIC of bronopol alone, Sabouraud 4% dextrose agar pH 5.6, corrected for dilution. The format is cell-based. The procedure:
(§1) Below, the antimicrobial efficacy of a composition according to the invention consisting of 20% by weight of isorbide caprylate 1 and 80% by weight of a 10% by weight strength solution of 2-bromo-2-nitropropane-1,3-diol (bronopol) in water against bacteria, fungi and yeasts is examined (hereinbelow, the composition is referred to as “composition A”). For the tests with bacteria, composition A was diluted with butyl polyglycol and then, at 50° C., added to liquid CASO agar (casein-peptone agar) buffered to pH 7 (+1-0.2) in various concentrations (hereinbelow referred to as compositions B1, B2, etc.). For the tests with fungi and yeasts, composition A was diluted with butyl polyglycol and then added to liquid Sabouraud 4% dextrose agar buffered to pH 5.6 (+1-0.2) in various concentrations (hereinbelow referred to as compositions PH1, PH2, etc.). The compositions B1, B2, etc. and PH1, PH2 etc. were each poured into Petri dishes and each inoculated with identical amounts of bacteria, fungi and yeasts. The minimum inhibitory concentration (MIC) is the concentration at which inhibition of the growth of the bacteria, fungi and yeasts in the compositions B1, B2, etc. and PH1, PH2, etc. occurs.
(§2) The minimum inhibitory concentrations for the pure substances isosorbide caprylate 1 and bronopol were determined analogously.
(§3) The values determined for the minimum inhibitory concentrations “MIC mixture”, stated in Table 1 below, are based on the concentrations of composition A.
(§4) The values determined for the minimum inhibitory concentrations “QA” and “QB”, stated in Table 1 below, have already been corrected for the dilution effect of the water and the butyl polyglycol.
(§5) Kull et al., Applied Microbiology 1961, 9, 538 using the formula below: […]
(§6) where • Qa is the minimum inhibitory concentration of isosorbide caprylate 1 in the mixture employed, • QA is the minimum inhibitory concentration of isosorbide caprylate 1, • Qb is the minimum inhibitory concentration of bronopol in the mixture employed and • QB is the minimum inhibitory concentration of bronopol.
(§7) The values for Qa and Qb are determined from the values for the mixtures (“MIC mixture”) by multiplying the minimum inhibitory concentrations determined for Qa with the factor 0.2 and for Qb with the factor 0.08, because of the proportions of the ingredients—20% by weight of isosorbide caprylate 1 and 8% by weight of bronopol—in composition A according to the invention examined.
(§8) If an SE value >1 is obtained, an antagonistic effect is present.

Assay [2] concerns Penicillium minioluteum. Description: MIC determination in agar (antimicrobial efficacy). Format: cell-based. To be noted: MIC of bronopol alone, Sabouraud 4% dextrose agar pH 5.6, corrected for dilution. How it is done:
as §1, §2, §3, §4, §5, §6, §7, §8

For assay [3], the system named is Enterobacter aerogenes. Description: MIC determination in agar (antimicrobial efficacy). The format is cell-based. As to conditions: MIC of bronopol alone, CASO agar pH 7, corrected for dilution. How it is done: as §1, §2, §3, §4, §5, §6, §7, §8
Assay [4] deals with Aspergillus terreus. Description: MIC determination in agar (antimicrobial efficacy). The format is cell-based. To be noted: MIC of bronopol alone, Sabouraud 4% dextrose agar pH 5.6, corrected for dilution. The procedure: as §1, §2, §3, §4, §5, §6, §7, §8
Assay [5] has as its system Escherichia coli. Description: MIC determination in agar (antimicrobial efficacy). The format is cell-based. As to conditions: MIC of bronopol alone, CASO agar pH 7, corrected for dilution. The procedure:
as §1, §2, §3, §4, §5, §6, §7, §8

Assay [6] deals with Candida albicans. The experiment in a line: MIC determination in agar (antimicrobial efficacy). The format is cell-based. To be noted: MIC of bronopol alone, Sabouraud 4% dextrose agar pH 5.6, corrected for dilution. How it is done:
as §1, §2, §3, §4, §5, §6, §7, §8

Assay [7] has as its system Klebsiella pneumoniae. The experiment in a line: MIC determination in agar (antimicrobial efficacy). As to conditions: MIC of bronopol alone, CASO agar pH 7, corrected for dilution. The format is cell-based. How it is done: as §1, §2, §3, §4, §5, §6, §7, §8
For assay [8], the system named is Fusarium solani. Description: MIC determination in agar (antimicrobial efficacy). The format is cell-based. As to conditions: MIC of bronopol alone, Sabouraud 4% dextrose agar pH 5.6, corrected for dilution. The procedure: as §1, §2, §3, §4, §5, §6, §7, §8
Assay [9] has as its system Citrobacter freundii. The experiment in a line: MIC determination in agar (antimicrobial efficacy). To be noted: MIC of bronopol alone, CASO agar pH 7, corrected for dilution. Format: cell-based. The procedure:
as §1, §2, §3, §4, §5, §6, §7, §8

Assay [10] deals with Proteus vulgaris. The experiment in a line: MIC determination in agar (antimicrobial efficacy). Format: cell-based. To be noted: MIC of bronopol alone, CASO agar pH 7, corrected for dilution. The procedure: as §1, §2, §3, §4, §5, §6, §7, §8
Assay [11] has as its system Pseudomonas aeruginosa. Description: MIC determination in agar (antimicrobial efficacy). Format: cell-based. To be noted: MIC of bronopol alone, CASO agar pH 7, corrected for dilution. The procedure:
as §1, §2, §3, §4, §5, §6, §7, §8

Assay [12] has as its system Penicillium funicolosium. The experiment in a line: MIC determination in agar (antimicrobial efficacy). The format is cell-based. To be noted: MIC of bronopol alone, Sabouraud 4% dextrose agar pH 5.6, corrected for dilution. How it is done: as §1, §2, §3, §4, §5, §6, §7, §8
For assay [13], the system named is Staphylococcus aureus. The experiment in a line: MIC determination in agar (antimicrobial efficacy). To be noted: MIC of bronopol alone, CASO agar pH 7, corrected for dilution. Format: cell-based. How it is done: (§9) Below, the antimicrobial efficacy of a composition according to the invention consisting of 20% by weight of isorbide caprylate 1 and 80% by weight of a 10% by weight strength solution of 2-bromo-2-nitropropane-1,3-diol (bronopol) in water against bacteria, fungi and yeasts is examined (hereinbelow, the composition is referred to as “composition A”). For the tests with bacteria, composition A was diluted with butyl polyglycol and then, at 50° C., added to liquid CASO agar (casein-peptone agar) buffered to pH 7 (+1-0.2) in various concentrations (hereinbelow referred to as compositions B1, B2, etc.). For the tests with fungi and yeasts, composition A was diluted with butyl polyglycol and then added to liquid Sabouraud 4% dextrose agar buffered to pH 5.6 (+1-0.2) in various concentrations (hereinbelow referred to as compositions PH1, PH2, etc.). […]
as §2, §3
(§10) The values determined for the minimum inhibitory concentrations “QA” and “QB”, stated in Table 1 below, have already been corrected for the dilution effect of the water and the butyl polyglycol. […]

The test system of assay [14] is Pseudomonas oleovorans. Description: MIC determination in agar (antimicrobial efficacy). As to conditions: MIC of bronopol alone, CASO agar pH 7, corrected for dilution. Format: cell-based. How it is done: as §9, §2, §3, §10
Assay [15] deals with bacteria, fungi and yeasts. The experiment in a line: antimicrobial activity, overall statements in words. The format is cell-based. The procedure:
as §1

For assay [16], the system named is bacteria, fungi and yeasts. To be noted: general statement, no data given, cited from earlier work.

Take `O=[N+]([O-])C(Br)(CO)CO` [bronopol, 2-bromo-2-nitropropane-1,3-diol]: the “QB, meas.” value was 500 ppm in assay [1]; 500 ppm in assay [2]; 75 ppm in assay [3]; 1000 ppm in [4]; 50 ppm in [5]; 500 ppm in assay [6]. The “QB, meas.” value stood at 50 ppm in assay [7]; 500 ppm in [8]; 50 ppm in assay [9]; 50 ppm in assay [10]; 75 ppm in assay [11]; 150 ppm in [12]. Moreover, the “QB, meas.” value is on record as 75 ppm in assay [13] and 50 ppm in assay [14].

With `O[C@@H]1CO[C@H]2[C@@H]1OC[C@@H]2O` [isosorbide], the antimicrobial activity result in assay [15] (overall conclusion in words from Tables 1 and 2) was “neither isosorbide nor isosorbide dicaprylate are antimicrobially active; also recorded: lack of antimicrobial activity”.

isosorbide monocaprylate: the antimicrobial activity result in assay [15] (concluded from activity of isosorbide caprylate 1 and inactivity of its other constituents) is listed as “significant antimicrobial activity”.

In the case of `CCCCCCCC(=O)O` [caprylic acid], the “antimicrobial efficacy as constituent of isosorbide caprylate 1” value in assay [15] (present in an amount of only 0.4% by weight) is “so low that it is negligible; also recorded: lack of antimicrobial activity”. In addition, in assay [16] (at a pH of 6 or above), the antimicrobial activity entry is listed as “no antimicrobial activity”. Moreover, the antimicrobial efficacy entry in assay [16] was “antimicrobially effective”.
